According to patent US20250243196A1, “CITRON KINASE INHIBITORS” (The Cleveland Clinic Foundation, priority 2021, published 2025):

Experiments:
Test in all cases: KinaseProfiler panel
Type in all cases: biochemical
Details in all cases: activity remaining
PKG1β(h) = PKG1β(h) (Homo sapiens (Human), UniProt Q13976); set-up: dose or concentration left out as unconfirmed
SIK(h) = SIK(h) (Homo sapiens (Human), UniProt P57059); set-up: dose or concentration left out as unconfirmed
TAF1L(h) = TAF1L(h) (Homo sapiens (Human), UniProt Q8IZX4); set-up: dose or concentration left out as unconfirmed
CaMKIIα(h) = CaMKIIα(h) (Homo sapiens (Human), UniProt Q9UQM7)
EphA3(h) = EphA3(h) (Homo sapiens (Human), UniProt P29320); set-up: dose or concentration left out as unconfirmed
CK1γ2(h) = CK1γ2(h) (Homo sapiens (Human), UniProt P78368); set-up: dose or concentration left out as unconfirmed
ASK1(h) = ASK1(h) (Homo sapiens (Human), UniProt Q99683); set-up: dose or concentration left out as unconfirmed
ACTR2(h) = ACTR2(h) (Homo sapiens (Human), UniProt P27037); set-up: dose or concentration left out as unconfirmed
DYRK1A(h) = DYRK1A(h) (Homo sapiens (Human), UniProt Q13627); set-up: dose or concentration left out as unconfirmed
CaMKIγ(h) = CaMKIγ(h) (Homo sapiens (Human), UniProt Q96NX5); set-up: dose or concentration left out as unconfirmed
PKR(h) = PKR(h) (Homo sapiens (Human), UniProt P19525); set-up: dose or concentration left out as unconfirmed
MAP4K3(h) = MAP4K3(h) (Homo sapiens (Human), UniProt Q8IVH8); set-up: dose or concentration left out as unconfirmed
PIP5K1a(h) = PIP5K1a(h) (Homo sapiens (Human), UniProt Q99755); set-up: dose or concentration left out as unconfirmed
PKCε(h) = PKCε(h) (Homo sapiens (Human), UniProt Q02156); set-up: dose or concentration left out as unconfirmed
MEK2(h) = MEK2(h) (Homo sapiens (Human), UniProt P36507); set-up: dose or concentration left out as unconfirmed
GRK2(h) = GRK2(h) (Homo sapiens (Human), UniProt P25098); set-up: dose or concentration left out as unconfirmed
GSK3β(h) = GSK3β(h) (Homo sapiens (Human), UniProt P49841); set-up: dose or concentration left out as unconfirmed
IKKα(h) = IKKα(h) (Homo sapiens (Human), UniProt O15111); set-up: dose or concentration left out as unconfirmed
CLIK1(h) = CLIK1(h) (Homo sapiens (Human), UniProt Q8TDR2); set-up: dose or concentration left out as unconfirmed
MLK1(h) = MLK1(h) (Homo sapiens (Human), UniProt P80192); set-up: dose or concentration left out as unconfirmed
ALK1(h) = ALK1(h) (Homo sapiens (Human), UniProt P37023); set-up: dose or concentration left out as unconfirmed
DCAMKL2(h) = DCAMKL2(h) (Homo sapiens (Human), UniProt Q8N568); set-up: dose or concentration left out as unconfirmed
Fes(h) = Fes(h) (Homo sapiens (Human), UniProt P07332); set-up: dose or concentration left out as unconfirmed
Flt3(h) = Flt3(h) (Homo sapiens (Human), UniProt P36888); set-up: dose or concentration left out as unconfirmed
IR(h), activated = IR(h), activated (Homo sapiens (Human), UniProt P06213); set-up: dose or concentration left out as unconfirmed
FGFR2(h) = FGFR2(h) (Homo sapiens (Human), UniProt P21802); set-up: dose or concentration left out as unconfirmed

Sequence of MEK2(h) (P36507 whole entry): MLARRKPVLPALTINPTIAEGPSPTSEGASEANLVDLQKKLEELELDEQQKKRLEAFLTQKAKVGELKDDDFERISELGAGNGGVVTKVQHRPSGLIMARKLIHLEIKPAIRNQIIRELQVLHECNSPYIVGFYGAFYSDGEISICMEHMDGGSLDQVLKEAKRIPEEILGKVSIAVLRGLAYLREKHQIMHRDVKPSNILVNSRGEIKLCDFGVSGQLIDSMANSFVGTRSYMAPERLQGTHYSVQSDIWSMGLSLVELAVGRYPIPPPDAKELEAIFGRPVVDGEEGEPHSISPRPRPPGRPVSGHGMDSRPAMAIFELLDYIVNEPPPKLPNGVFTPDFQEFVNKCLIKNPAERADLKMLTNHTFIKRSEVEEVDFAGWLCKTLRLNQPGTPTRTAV
Sequence of TAF1L(h) (Q8IZX4 whole entry): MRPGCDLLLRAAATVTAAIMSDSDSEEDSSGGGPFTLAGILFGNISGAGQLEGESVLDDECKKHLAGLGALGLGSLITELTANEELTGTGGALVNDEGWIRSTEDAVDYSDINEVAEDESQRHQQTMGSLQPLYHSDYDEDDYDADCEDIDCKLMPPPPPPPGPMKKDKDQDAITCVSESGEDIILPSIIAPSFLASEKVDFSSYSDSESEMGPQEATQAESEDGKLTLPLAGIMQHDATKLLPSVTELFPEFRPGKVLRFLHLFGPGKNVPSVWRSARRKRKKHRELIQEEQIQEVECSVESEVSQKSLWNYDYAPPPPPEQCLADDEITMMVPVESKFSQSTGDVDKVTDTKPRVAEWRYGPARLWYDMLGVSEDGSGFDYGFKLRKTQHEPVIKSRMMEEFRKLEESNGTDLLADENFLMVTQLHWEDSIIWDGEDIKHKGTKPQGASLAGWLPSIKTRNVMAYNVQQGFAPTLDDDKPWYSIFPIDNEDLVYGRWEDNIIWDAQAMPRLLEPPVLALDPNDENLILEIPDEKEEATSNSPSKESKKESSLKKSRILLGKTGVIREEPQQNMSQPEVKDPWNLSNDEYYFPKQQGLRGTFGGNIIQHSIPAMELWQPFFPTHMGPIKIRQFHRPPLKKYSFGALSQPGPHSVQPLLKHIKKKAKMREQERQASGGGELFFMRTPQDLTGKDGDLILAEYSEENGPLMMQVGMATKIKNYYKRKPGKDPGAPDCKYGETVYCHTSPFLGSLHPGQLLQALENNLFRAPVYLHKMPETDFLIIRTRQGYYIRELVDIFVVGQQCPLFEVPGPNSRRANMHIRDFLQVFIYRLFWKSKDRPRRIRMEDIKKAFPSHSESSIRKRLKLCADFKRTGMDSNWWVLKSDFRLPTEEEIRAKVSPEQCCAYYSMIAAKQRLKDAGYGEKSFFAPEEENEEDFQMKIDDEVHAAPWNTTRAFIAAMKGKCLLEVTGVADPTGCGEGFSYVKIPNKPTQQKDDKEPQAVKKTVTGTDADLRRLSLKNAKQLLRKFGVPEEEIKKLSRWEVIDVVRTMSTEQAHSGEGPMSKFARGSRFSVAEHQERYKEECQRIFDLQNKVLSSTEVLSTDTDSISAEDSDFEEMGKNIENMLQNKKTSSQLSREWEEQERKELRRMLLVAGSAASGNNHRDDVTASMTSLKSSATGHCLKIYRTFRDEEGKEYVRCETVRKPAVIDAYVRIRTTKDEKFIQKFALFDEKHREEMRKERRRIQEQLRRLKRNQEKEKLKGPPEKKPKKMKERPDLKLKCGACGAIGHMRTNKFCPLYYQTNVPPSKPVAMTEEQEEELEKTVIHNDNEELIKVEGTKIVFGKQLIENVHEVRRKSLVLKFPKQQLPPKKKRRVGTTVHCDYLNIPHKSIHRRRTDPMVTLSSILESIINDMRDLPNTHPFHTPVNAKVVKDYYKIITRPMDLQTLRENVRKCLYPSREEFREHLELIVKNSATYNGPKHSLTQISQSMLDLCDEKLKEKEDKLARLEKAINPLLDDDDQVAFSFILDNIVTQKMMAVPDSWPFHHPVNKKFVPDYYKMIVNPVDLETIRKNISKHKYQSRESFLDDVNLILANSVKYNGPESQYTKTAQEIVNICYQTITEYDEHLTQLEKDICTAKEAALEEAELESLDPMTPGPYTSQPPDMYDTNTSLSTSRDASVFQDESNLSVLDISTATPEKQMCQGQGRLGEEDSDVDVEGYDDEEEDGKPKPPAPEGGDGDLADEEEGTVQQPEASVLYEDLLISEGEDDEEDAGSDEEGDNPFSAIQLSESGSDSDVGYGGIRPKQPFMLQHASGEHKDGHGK
Sequence of ALK1(h) (P37023 22-503): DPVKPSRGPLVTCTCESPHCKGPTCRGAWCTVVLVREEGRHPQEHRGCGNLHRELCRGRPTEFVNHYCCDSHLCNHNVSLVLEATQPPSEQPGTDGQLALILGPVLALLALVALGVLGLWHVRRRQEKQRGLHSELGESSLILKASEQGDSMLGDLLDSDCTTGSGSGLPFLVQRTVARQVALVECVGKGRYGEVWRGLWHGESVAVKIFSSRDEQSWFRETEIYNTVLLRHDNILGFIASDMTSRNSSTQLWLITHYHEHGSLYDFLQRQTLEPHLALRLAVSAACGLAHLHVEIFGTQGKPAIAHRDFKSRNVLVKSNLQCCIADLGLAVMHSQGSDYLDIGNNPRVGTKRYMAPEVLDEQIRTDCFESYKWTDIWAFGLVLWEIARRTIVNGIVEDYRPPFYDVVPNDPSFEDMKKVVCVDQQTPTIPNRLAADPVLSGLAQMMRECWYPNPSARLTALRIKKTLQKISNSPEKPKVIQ
Sequence of MLK1(h) (P80192 whole entry): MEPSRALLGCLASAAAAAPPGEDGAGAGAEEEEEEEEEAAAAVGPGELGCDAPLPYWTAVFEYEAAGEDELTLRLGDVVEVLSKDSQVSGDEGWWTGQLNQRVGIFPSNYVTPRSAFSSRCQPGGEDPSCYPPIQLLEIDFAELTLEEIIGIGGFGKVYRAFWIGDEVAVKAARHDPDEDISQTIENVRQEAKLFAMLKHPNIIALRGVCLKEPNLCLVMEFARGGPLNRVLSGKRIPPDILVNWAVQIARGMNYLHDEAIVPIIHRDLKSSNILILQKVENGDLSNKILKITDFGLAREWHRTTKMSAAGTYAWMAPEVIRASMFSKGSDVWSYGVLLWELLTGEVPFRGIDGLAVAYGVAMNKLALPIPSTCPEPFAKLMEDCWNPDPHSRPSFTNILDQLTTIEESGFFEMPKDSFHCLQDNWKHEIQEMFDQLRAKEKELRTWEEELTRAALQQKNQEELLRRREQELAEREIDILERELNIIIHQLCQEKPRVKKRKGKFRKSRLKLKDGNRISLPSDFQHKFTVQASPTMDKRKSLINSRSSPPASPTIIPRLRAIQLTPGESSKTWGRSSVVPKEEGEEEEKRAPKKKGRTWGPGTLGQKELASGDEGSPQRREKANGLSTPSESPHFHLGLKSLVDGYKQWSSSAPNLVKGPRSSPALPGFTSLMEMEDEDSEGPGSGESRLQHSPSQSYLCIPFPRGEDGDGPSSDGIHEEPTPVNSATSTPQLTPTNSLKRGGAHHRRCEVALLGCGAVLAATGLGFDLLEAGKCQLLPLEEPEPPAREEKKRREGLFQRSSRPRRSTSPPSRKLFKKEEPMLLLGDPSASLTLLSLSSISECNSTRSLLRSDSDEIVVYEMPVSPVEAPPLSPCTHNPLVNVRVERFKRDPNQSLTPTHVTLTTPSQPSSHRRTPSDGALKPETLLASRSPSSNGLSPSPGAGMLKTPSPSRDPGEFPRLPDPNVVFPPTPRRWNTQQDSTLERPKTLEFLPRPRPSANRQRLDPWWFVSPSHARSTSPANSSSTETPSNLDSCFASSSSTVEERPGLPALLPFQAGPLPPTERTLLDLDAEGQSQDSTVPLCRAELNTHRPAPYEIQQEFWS
Sequence of MAP4K3(h) (Q8IVH8 whole entry): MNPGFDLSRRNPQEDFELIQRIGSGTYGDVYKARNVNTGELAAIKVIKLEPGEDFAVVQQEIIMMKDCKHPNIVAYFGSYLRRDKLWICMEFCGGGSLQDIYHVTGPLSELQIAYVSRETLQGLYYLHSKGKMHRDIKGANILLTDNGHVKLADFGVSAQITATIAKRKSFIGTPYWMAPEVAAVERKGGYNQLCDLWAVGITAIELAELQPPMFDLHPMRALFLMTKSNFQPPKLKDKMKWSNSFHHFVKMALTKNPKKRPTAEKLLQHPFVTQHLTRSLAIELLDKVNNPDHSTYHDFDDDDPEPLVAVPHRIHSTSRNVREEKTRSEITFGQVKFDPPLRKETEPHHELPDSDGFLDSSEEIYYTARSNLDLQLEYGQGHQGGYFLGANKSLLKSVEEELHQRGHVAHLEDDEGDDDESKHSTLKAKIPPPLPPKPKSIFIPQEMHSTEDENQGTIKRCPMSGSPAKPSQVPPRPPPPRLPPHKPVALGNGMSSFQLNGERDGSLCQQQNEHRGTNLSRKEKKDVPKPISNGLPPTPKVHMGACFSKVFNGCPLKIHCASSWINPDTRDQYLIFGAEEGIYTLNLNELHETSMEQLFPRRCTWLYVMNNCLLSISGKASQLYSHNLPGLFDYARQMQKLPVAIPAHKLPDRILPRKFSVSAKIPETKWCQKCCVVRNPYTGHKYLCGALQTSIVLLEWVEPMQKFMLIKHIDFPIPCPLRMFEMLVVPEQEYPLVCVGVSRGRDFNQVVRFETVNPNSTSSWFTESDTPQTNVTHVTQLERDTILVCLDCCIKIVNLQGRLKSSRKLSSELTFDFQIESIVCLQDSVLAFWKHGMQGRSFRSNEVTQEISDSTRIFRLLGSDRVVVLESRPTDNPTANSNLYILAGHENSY

SMILES: Cc1cc2c(-c3ccc(NC(=O)[C@H](N)CC(C)(C)C)cc3C)ccnc2[nH]1 [Compound F-90, (2R)-2-Amino-4,4-dimethyl-N-[3-methyl-4-(2-methyl-1H-pyrrolo[2,3-b]pyridin-4-yl)phenyl]pentanamide]
- % Activity (PKG1β(h)): 92%
- % Activity (SIK(h)): 105%
- % Activity (TAF1L(h)): 101%
- % Activity (CaMKIIα(h)): 88%
- % Activity (EphA3(h)): 79%
- % Activity (CK1γ2(h)): 97%
- % Activity (ASK1(h)): 100%
- % Activity (ACTR2(h)): 96%
- % Activity (DYRK1A(h)): 112%
- % Activity (CaMKIγ(h)): 110%
- % Activity (PKR(h)): 85%
- % Activity (MAP4K3(h)): 109%
- % Activity (PIP5K1a(h)): 103%
- % Activity (PKCε(h)): 97%
- % Activity (MEK2(h)): 92%
- % Activity (GRK2(h)): 95%
- % Activity (GSK3β(h)): 93%
- % Activity (IKKα(h)): 98%
- % Activity (CLIK1(h)): 97%
- % Activity (MLK1(h)): 103%
- % Activity (ALK1(h)): 94%
- % Activity (DCAMKL2(h)): 104%
- % Activity (Fes(h)): 111%
- % Activity (Flt3(h)): 84%
- % Activity (IR(h), activated): 92%
- % Activity (FGFR2(h)): 89%
